Test results published in patent US20180362543A1, “HIV REPLICATION INHIBITOR” (Shionogi & Co., Ltd., priority 2013, published 2018).

Test system: HIV (HTLV-III B strain)
Assay: HIV replication inhibition assay (MTT, MT-4 cells)
Format: cell-based
Details: Human immunodeficiency virus 1, MT4, 96 h
Experimental: HIV (HTLV-III B strain) persistent infected human T cell strain Molt-4 clone 8 was cultured in 10% Fetal Bovine Serum-containing RPMI-1640 medium and the supernatant was filtrated, then the virus titer was measured and the solution was stored at −80° C. Each anti-human immunodeficiency virus active substance was diluted with the above cultured medium to the designated concentration, which was dispensed into 96 well micro plate by 50 μL. Next, a MT-4 cell suspended liquid was dispensed by 100 μL (2.5×10^4 cells), then the above HIV-containing supernatant diluted with the above cultured medium was added thereto by 50 μL (60 pfu (plaque forming unit)).
The obtained mixture was cultured at 37° C. in CO2 incubator for four days, then 3-(4,5-dimehylthiazole-2-yl)-2,5-diphenyltetrazolynium bromide (MTT) 5 mg/mL in PBS was added to each well by 30 μL, followed by 1 hr-cultivation. In this step, as formazan was precipitated by reduction of MTT in living cells, the cell supernatant was removed from all well by 150 μL, then a 150 μL of solution (10% Triton X-100 and […]) was added thereto, followed by shaking with a plate mixer, to elute formazan. The formazan was measured with a microreader at OD: 560 nm and 690 nm (wavelength) and the result was compared with the reference. EC50 means the compound concentration at which cell cytotoxicity by virus is inhibited 50%.

| SMILES | EC50 (Table A-4, four days) [µM] | EC50 (Table A-5, four days) [µM] | also measured |
| --- | --- | --- | --- |
| Cc1ccc(-c2c(C)c3c(c(C)c2[C@H](OC(C)(C)C)C(=O)O)N(S(C)(=O)=O)Cc2c(F)cccc2-3)cc1 [Compound 163] |  |  | EC50 (Table A-3, four days): 0.015 µM |
| Cc1ccc(-c2c(C)c3c(c(C)c2[C@H](OC(C)(C)C)C(=O)O)N(S(C)(=O)=O)Cc2cc(OC(F)(F)F)ccc2-3)cc1 [Compound 164] |  |  | EC50 (Table A-3, four days): 0.0041 µM |
| Cc1ccc(-c2c(C)c3c(c(C)c2[C@H](OC(C)(C)C)C(=O)O)N(S(C)(=O)=O)Cc2cc4c(cc2-3)COC4)cc1 [Compound 166] |  |  | EC50 (Table A-3, four days): 0.0017 µM |
| Cc1ccc(-c2c(C)c3c(c(C)c2[C@H](OC(C)(C)C)C(=O)O)N(S(C)(=O)=O)Cc2cc(F)ccc2-3)cc1 [Compound 167] |  |  | EC50 (Table A-3, four days): 0.0085 µM |
| COc1ccc2c(c1)-c1c(C)c(-c3ccc(C)cc3)c([C@H](OC(C)(C)C)C(=O)O)c(C)c1N(S(C)(=O)=O)C2 [Compound 168] |  |  | EC50 (Table A-3, four days): 0.024 µM |
| Cc1ccc(-c2c(C)c3c(c(C)c2[C@H](OC(C)(C)C)C(=O)O)N(S(C)(=O)=O)Cc2cccc(C(F)(F)F)c2-3)cc1 [Compound 169] |  |  | EC50 (Table A-3, four days): 0.0096 µM |
| Cc1ccc(-c2c(C)c3c(c(C)c2[C@H](OC(C)(C)C)C(=O)O)NS(=O)(=O)N(c2ccc(F)cc2)CC3)cc1 [Compound 171] |  |  | EC50 (Table A-3, four days): 0.021 µM |
| Cc1ccc(-c2c(C)c3c(c(C)c2[C@H](OC(C)(C)C)C(=O)O)N(S(C)(=O)=O)Cc2c(F)ccc(C)c2-3)cc1 [Compound 172] |  |  | EC50 (Table A-3, four days): 0.042 µM |
| Cc1ccc(-c2c(C)c3c(c(C)c2[C@H](OC(C)(C)C)C(=O)O)N(S(C)(=O)=O)Cc2c-3cccc2C(F)(F)F)cc1 [Compound 173] |  |  | EC50 (Table A-3, four days): 0.0094 µM |
| COc1ccc2c(c1F)CN(S(C)(=O)=O)c1c(C)c([C@H](OC(C)(C)C)C(=O)O)c(-c3ccc(C)cc3)c(C)c1-2 [Compound 174] |  |  | EC50 (Table A-3, four days): 0.0015 µM |
| Cc1ccc(-c2c(C)c3c(c(C)c2[C@H](OC(C)(C)C)C(=O)O)N(S(C)(=O)=O)Cc2cc4c(cc2-3)OCCCO4)cc1 [Compound 175] |  |  | EC50 (Table A-3, four days): 0.0029 µM |
| Cc1ccc(-c2c(C)c3c(c(C)c2[C@H](OC(C)(C)C)C(=O)O)NC(=O)N(Cc2ccc(F)cc2)CC3)cc1 [Compound 177] |  |  | EC50 (Table A-3, four days): 0.034 µM |
| Cc1ccc(-c2c(C)c3c(c(C)c2[C@H](OC(C)(C)C)C(=O)O)N(S(C)(=O)=O)Cc2cscc2-3)cc1 [Compound 183] |  |  | EC50 (Table A-3, four days): 0.021 µM |
| Cc1ccc(-c2c(C)c3c4c(c2C(OC(C)(C)C)C(=O)O)CCCN4S(=O)(=O)N(Cc2ccc(F)cc2)C3)cc1 (centres unmarked) [Compound 184] |  |  | EC50 (Table A-3, four days): 0.053 µM |
| Cc1ccc(-c2c(C)c3c(c(C)c2[C@H](OC(C)(C)C)C(=O)O)N(S(C)(=O)=O)Cc2c(C)cccc2-3)cc1 [Compound 208] | 0.015 |  |  |
| Cc1c(-c2c(C)c3c(c(C)c2[C@H](OC(C)(C)C)C(=O)O)N(S(C)(=O)=O)Cc2cccc(F)c2-3)ccc2c1CCCO2 [Compound 224] | 0.0025 |  |  |
| Cc1c(-c2c(C)c3c(c(C)c2[C@H](OC(C)(C)C)C(=O)O)N(S(C)(=O)=O)Cc2cccc(F)c2-3)ccc2c1NCCO2 [Compound 235] | 0.0054 |  |  |
| Cc1c(-c2c(C)c3c(c(C)c2[C@H](OC(C)(C)C)C(=O)O)N(S(C)(=O)=O)Cc2c(F)ccc(F)c2-3)ccc2c1CCCO2 [Compound 246] | 0.0023 |  |  |

| SMILES | EC50 (Table A-4, four days) [µM] | EC50 (Table A-5, four days) [µM] | also measured |
| --- | --- | --- | --- |
| Cc1c(-c2c(C)c3c(c(C)c2[C@H](OC(C)(C)C)C(=O)O)N(S(C)(=O)=O)Cc2c(F)ccc(F)c2-3)ccc2c1NCCO2 [Compound 249] |  | 0.0058 |  |
| Cc1ccc2c(c1F)CN(S(C)(=O)=O)c1c(C)c([C@H](OC(C)(C)C)C(=O)O)c(-c3ccc4c(c3C)CCCO4)c(C)c1-2 [Compound 251] |  | 0.0021 |  |
| Cc1ccc2c(c1F)CN(S(C)(=O)=O)c1c(C)c([C@H](OC(C)(C)C)C(=O)O)c(-c3ccc4c(c3C)NCCO4)c(C)c1-2 [Compound 254] |  | 0.0031 |  |
| Cc1c(C2=CCC(C)(C)CC2)c([C@H](OC(C)(C)C)C(=O)O)c(C)c2c1-c1c(F)cccc1CN2S(C)(=O)=O [Compound 258] |  | 0.0039 |  |
| Cc1c(-c2ccc3c(c2)C(F)(F)CCO3)c([C@H](OC(C)(C)C)C(=O)O)c(C)c2c1-c1c(F)cccc1CN2S(C)(=O)=O [Compound 259] |  | 0.027 |  |
| Cc1c(-c2ccc3c(c2)NCCO3)c([C@H](OC(C)(C)C)C(=O)O)c(C)c2c1-c1c(F)cccc1CN2S(C)(=O)=O [Compound 260] |  | 0.014 |  |
| Cc1c(-c2ccc3c4c(ccnc24)CCO3)c([C@H](OC(C)(C)C)C(=O)O)c(C)c2c1-c1c(F)cccc1CN2S(C)(=O)=O [Compound 262] |  | 0.025 |  |
| COc1ccc(-c2c(C)c3c(c(C)c2[C@H](OC(C)(C)C)C(=O)O)N(S(C)(=O)=O)Cc2cccc(F)c2-3)cc1 [Compound 263] |  | 0.012 |  |
| Cc1c(-c2ccc(F)cc2)c([C@H](OC(C)(C)C)C(=O)O)c(C)c2c1-c1c(F)cccc1CN2S(C)(=O)=O [Compound 264] |  | 0.019 |  |
| Cc1c(-c2ccc(Cl)cc2)c([C@H](OC(C)(C)C)C(=O)O)c(C)c2c1-c1c(F)cccc1CN2S(C)(=O)=O [Compound 265] |  | 0.011 |  |
| Cc1c(-c2ccc3c(c2)CCCO3)c([C@H](OC(C)(C)C)C(=O)O)c(C)c2c1-c1c(F)cccc1CN2S(C)(=O)=O [Compound 266] |  | 0.0079 |  |
| Cc1c(-c2c(C)c3c(c(C)c2[C@H](OC(C)(C)C)C(=O)O)N(S(C)(=O)=O)Cc2cccc(F)c2-3)cc(F)c2c1CCCO2 [Compound 273] |  | 0.0045 |  |
| COc1ccc(-c2c(C)c3c(c(C)c2[C@H](OC(C)(C)C)C(=O)O)N(S(C)(=O)=O)Cc2cccc(F)c2-3)c(C)c1 [Compound 275] |  | 0.015 |  |
| Cc1ccc(-c2c(C)c3c(c(C)c2[C@H](OC(C)(C)C)C(=O)O)N(S(C)(=O)=O)Cc2cccc(F)c2-3)c(C)c1 [Compound 278] |  | 0.0037 |  |
| Cc1ccc(-c2c(C)c3c(c(C)c2[C@H](OC(C)(C)C)C(=O)O)N(S(C)(=O)=O)Cc2cc(C#N)ccc2-3)cc1 [Compound 279] |  | 0.011 |  |
| Cc1c(-c2ccc3c(c2F)NCCO3)c([C@H](OC(C)(C)C)C(=O)O)c(C)c2c1-c1c(F)cccc1CN2S(C)(=O)=O [Compound 282] |  | 0.0088 |  |
| Cc1ccc(-c2c(C)c3c(c(C)c2[C@H](OC(C)(C)C)C(=O)O)N(S(C)(=O)=O)CC2CCCCN32)cc1 (some centres unmarked) [Compound 285] |  | 0.055 |  |

Continued, in another order:

| EC50 (Table A-4, four days) [µM] | EC50 (Table A-5, four days) [µM] | SMILES | also measured |
| --- | --- | --- | --- |
| 0.038 |  | Cc1ccc(-c2c(C)c3c(c(C)c2[C@H](OC(C)(C)C)C(=O)O)N(S(C)(=O)=O)Cc2ccncc2-3)cc1 [Compound 210] |  |
| 0.0019 |  | Cc1ccc(-c2c(C)c3c(c(C)c2[C@H](OC(C)(C)C)C(=O)O)N(S(C)(=O)=O)Cc2cc(F)cc(F)c2-3)cc1 [Compound 212] |  |
| 0.0049 |  | COc1cc2c(cn1)-c1c(C)c(-c3ccc(C)cc3)c([C@H](OC(C)(C)C)C(=O)O)c(C)c1N(S(C)(=O)=O)C2 [Compound 214] |  |
| 0.046 |  | Cc1ccc(-c2c([C@H](OC(C)(C)C)C(=O)O)c(C)c3nc(O)c4ccc(C(F)(F)F)nc4c3c2C)cc1 [Compound 216] |  |
| 0.041 |  | Cc1ccc(-c2c([C@H](OC(C)(C)C)C(=O)O)c(C)c3nc(O)c4ccc(C)nc4c3c2C)cc1 [Compound 217] |  |
| 0.0064 |  | Cc1c(-c2c([C@H](OC(C)(C)C)C(=O)O)c(C)c3nc(O)c4cc(F)cnc4c3c2C)ccc2c1CCCO2 [Compound 218] |  |
| 0.0073 |  | Cc1ccc(-c2c(C)c3c(c(C)c2[C@H](OC(C)(C)C)C(=O)O)N(S(C)(=O)=O)Cc2ccc(F)c(F)c2-3)cc1 [Compound 220] |  |
| 0.09 |  | Cc1ccc(-c2c([C@H](OC(C)(C)C)C(=O)O)c(C)c3nc(O)c4c(c3c2C)CCCN4)cc1 [Compound 221] |  |
| 0.034 |  | COc1ccc2c(c1)c(O)nc1c(C)c([C@H](OC(C)(C)C)C(=O)O)c(-c3ccc(C)cc3)c(C)c12 [Compound 223] |  |
| 0.058 |  | COc1ccc2c(O)nc3c(C)c([C@H](OC(C)(C)C)C(=O)O)c(-c4ccc(C)cc4)c(C)c3c2c1 [Compound 226] |  |
| 0.019 |  | Cc1ccc(-c2c(C)c3c(c(C)c2[C@H](OC(C)(C)C)C(=O)O)N(S(C)(=O)=O)Cc2c(F)cc(F)cc2-3)cc1 [Compound 228] |  |
| 0.094 |  | Cc1ccc(-c2c([C@H](OC(C)(C)C)C(=O)O)c(C)c3nc(O)c4ccc(F)cc4c3c2C)cc1 [Compound 230] |  |
| 0.078 |  | Cc1ccc(-c2c([C@H](OC(C)(C)C)C(=O)O)c(C)c3nc(O)c4cc(F)c(F)cc4c3c2C)cc1 [Compound 231] |  |
| 0.012 |  | Cc1ccc(-c2c([C@H](OC(C)(C)C)C(=O)O)c(C)c3nc(O)c4cc5c(cc4c3c2C)OCCO5)cc1 [Compound 232] |  |
| 0.038 |  | Cc1ccc(-c2c([C@H](OC(C)(C)C)C(=O)O)c(C)c3nc(O)c4cc5ccccc5nc4c3c2C)cc1 [Compound 233] |  |
| 0.012 |  | Cc1c(-c2c([C@H](OC(C)(C)C)C(=O)O)c(C)c3nc(O)c4cc(F)cnc4c3c2C)ccc2c1NCCO2 [Compound 237] |  |
| 0.031 |  | Cc1c([C@H](OC(C)(C)C)C(=O)O)c(-c2ccc(Cl)cc2)c(C)c2c1nc(O)c1cc(F)cnc12 [Compound 238] |  |
| 0.081 |  | Cc1ccc(-c2c([C@H](OC(C)(C)C)C(=O)O)c(C)c3ncc4cc(F)cnc4c3c2C)cc1 [Compound 239] |  |
| 0.015 |  | Cc1ccc(-c2c([C@H](OC(C)(C)C)C(=O)O)c(C)c3nc(N)c4cc(F)cnc4c3c2C)cc1 [Compound 245] |  |
|  | 0.011 | Cc1ccc(-c2c(C)c3c(c(C)c2[C@H](OC(C)(C)C)C(=O)O)N(S(C)(=O)=O)Cc2nc(C)ccc2-3)cc1 [Compound 248] |  |
|  | 0.016 | Cc1ccc(-c2c(C)c3c(c(C)c2[C@H](OC(C)(C)C)C(=O)O)N(S(C)(=O)=O)Cc2cc(F)cnc2-3)cc1 [Compound 284] |  |
